# Source: patent publication US8546390B2, “6-(pyrrolopyridinyl) pyrimidin-2-ylamine derivatives and the use thereof for the treatment of cancer and AIDS” (Merck Patent GmbH, priority 2008, dated 2013)
# Like-named read-outs stand apart in the source and are kept apart here.
# Key:
# PDK1 = biological target: T1, PDK1 (Homo sapiens, UniProt O15530); assay: Test for the inhibition of PDK1 (flashplate, 33P-ATP); assay type: biochemical
# T1 construct: His6 (N)
# T1 sequence (O15530 51-556): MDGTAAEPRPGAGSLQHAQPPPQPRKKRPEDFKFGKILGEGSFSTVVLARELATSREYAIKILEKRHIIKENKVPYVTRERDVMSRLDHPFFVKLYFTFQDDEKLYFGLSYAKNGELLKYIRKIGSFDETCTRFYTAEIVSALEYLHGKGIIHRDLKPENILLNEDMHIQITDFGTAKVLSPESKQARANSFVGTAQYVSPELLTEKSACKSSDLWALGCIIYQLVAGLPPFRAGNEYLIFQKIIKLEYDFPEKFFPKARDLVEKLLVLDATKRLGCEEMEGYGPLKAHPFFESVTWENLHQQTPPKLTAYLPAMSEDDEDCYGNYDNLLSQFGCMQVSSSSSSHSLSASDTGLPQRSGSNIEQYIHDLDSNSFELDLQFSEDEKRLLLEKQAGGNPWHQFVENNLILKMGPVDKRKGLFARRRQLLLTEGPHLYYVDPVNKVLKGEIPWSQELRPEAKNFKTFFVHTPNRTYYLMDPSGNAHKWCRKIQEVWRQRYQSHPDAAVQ
# Protocol: NO.: 1, (400 Nm), 4 μm ATP (with 0.2 μCi of ^33P-ATP/well) and the test substance in 50 μl of conventional experimental solution per well are incubated at 30° C. for 60 min. The test substances are employed in corresponding concentrations (if desired in a dilution series). The control is carried out without test substance. The reaction is stopped using standard methods and washed. The activity of the kinase is measured via the incorporated radioactivity in top count. In order to determine the non-specific kinase reaction (blank value), the experimental batches are carried out in the presence of 100 nM staurosporin.
# The radioactivity (decompositions per minute) of the blank value (no use of test substance in the presence of staurosporin) is subtracted from all other radioactivity values. The controls (kinase activity without test substance) are set equal to 100 percent and all other radioactivity values (after subtracting the blank value) are expressed set in relation thereto (for example in % of the control).
# A2780 (ovary) = assay: Inhibition of the proliferation/vitality of tumour cells (Alamar Blue test); assay type: cell-based; details: Homo sapiens, 96 h, A2780 ovary cell line, 4 days cultivation with test substance
# Protocol: In the present experiment description, the inhibition of tumour cell proliferation/tumour cell vitality by active ingredients is described. The cells are sown in a suitable cell density in microtitre plates (96-well format) and the test substances are added in the form of a concentration series. After four further days of cultivation in serum-containing medium, the tumour cell proliferation/tumour cell vitality can be determined by means of an Alamar Blue test system.
# The cells are cultivated in medium. At intervals of several days, the cells are detached from the culture dishes with the aid of trypsin solution and sown in suitable dilution in fresh medium. The cells are cultivated at 37° Celsius and 10% CO2.
# A defined number of cells (for example 2000 cells) per culture/well in a volume of 180 μl of culture medium are sown in microtitre plates (96 well cell-culture plates) using a multichannel pipette. The cells are subsequently cultivated in a CO2 incubator (37° C. and 10% CO2).
# The test substances are dissolved, for example, in DMSO and subsequently employed in corresponding concentration (if desired in a dilution series) in the cell culture medium. The dilution steps can be adapted depending on the efficiency of the active ingredients and the desired spread of the concentrations. Cell culture medium is added to the test substances in corresponding concentrations. The addition of the test substances to the cells can take place on the same day as the sowing of the cells. To this end, in each case 20 μl of substance solution from the predilution plate are added to the cultures/wells. The cells are cultivated for a further 4 days at 37° Celsius and 10% CO2.
# In each case, 20 μl of Alamar Blue reagent are added per well, and the microtitre plates are incubated, for example, for a further seven hours in a CO2 incubator (at 37° C. and 10% CO2). The plates are measured in a reader with a fluorescence filter at a wavelength of 540 nm. The plates can be shaken gently immediately before the measurement.
# The absorbance value of the medium control (no cells and test substances used) is subtracted from all other absorbance values. The controls (cells without test substance) are set equal to 100 percent, and all other absorbance values are set in relation thereto (for example in % of control): Calculation:
# IC50 values (50% inhibition) are determined with the aid of statistics programs, such as, for example, RS1.
# [1] = His6-PDK1(Δ1-50) 3.4 nM, 30° C., 60 min, read-out: IC50 PDK1
Molecule,IC50 (PDK1; [1]),IC50 (A2780 (ovary)),other results
"4-(3-aminopropyl)-6-[5-(1-methyl-1H-pyrazol-4-yl)-1H-pyrrolo[2,3-b]pyridin-3-yl]pyrimidin-2-ylamine [Compound A42]",10 to 1000 nM,–,–
"CCCCc1cc(-c2c[nH]c3ncccc23)nc(N)n1 [Compound A1, 4-butyl-6-(1H-pyrrolo[2,3-b]pyridin-3-yl)pyrimidin-2-ylamine]",–,10 to 1000 nM,–
"Nc1nc(-c2ccccc2)cc(-c2c[nH]c3ncccc23)n1 [Compound A2, 4-Phenyl-6-(1H-pyrrolo[2,3-b]pyridin-3-yl)pyrimidin-2-ylamine]",–,10 to 1000 nM,–
"CCCc1cc(-c2c[nH]c3ncccc23)nc(N)n1 [Compound A3, 4-Propyl-6-(1H-pyrrolo[2,3-b]pyridin-3-yl)pyrimidin-2-ylamine]",–,10 to 1000 nM,–
"CCc1cc(-c2c[nH]c3ncccc23)nc(N)n1 [Compound A5, 4-ethyl-6-(1H-pyrrolo[2,3-b]pyridin-3-yl)pyrimidin-2-ylamine]",–,10 to 1000 nM,–
"CCCCCc1cc(-c2c[nH]c3ncccc23)nc(N)n1 [Compound A6, 4-Pentyl-6-(1H-pyrrolo[2,3-b]pyridin-3-yl)pyrimidin-2-ylamine]",–,1000 to 10000 nM,–
CCCC1CCC(c2cc(-c3c[nH]c4ncccc34)nc(N)n2)CC1 (stereo not shown) [Compound A8],–,1000 to 10000 nM,–
"NCCCc1cc(-c2c[nH]c3ncccc23)nc(N)n1 [Compound A16, 4-(3-Aminopropyl)-6-(1H-pyrrolo[2,3-b]pyridin-3-yl)pyrimidin-2-ylamine]",10 to 1000 nM,–,–
CCc1cc(-c2c[nH]c3ncc(Br)cc23)nc(N)n1 [Compound A32],10 to 1000 nM,–,–
"NCCCc1cc(-c2c[nH]c3ncc(-c4ccco4)cc23)nc(N)n1 [Compound A43, 4-(3-Aminopropyl)-6-(5-furan-2-yl-1H-pyrrolo[2,3-b]pyridin-3-yl)pyrimidin-2-ylamine]",10 to 1000 nM,–,–
"CCc1cc(-c2c[nH]c3ncc(-c4cnn(C)c4)cc23)nc(N)n1 [Compound A45, 4-ethyl-6-[5-(1-methyl-1H-pyrazol-4-yl)-1H-pyrrolo[2,3-b]pyridin-3-yl]pyrimidin-2-ylamine]",10 to 1000 nM,–,–
"CCc1cc(-c2c[nH]c3ncc(-c4ccc(N)nc4)cc23)nc(N)n1 [Compound A48, 4-[5-(6-Aminopyridin-3-yl)-1H-pyrrolo-[2,3-b]pyridin-3-yl]-6-ethylpyrimidin-2-ylamine]",10 to 1000 nM,–,–
"CCc1cc(-c2c[nH]c3ncc(-c4ccco4)cc23)nc(N)n1 [Compound A49, 4-Ethyl-6-(5-furan-2-yl-1H-pyrrolo[2,3-b]pyridin-3-yl)pyrimidin-2-ylamine]",10 to 1000 nM,–,–
"CCc1cc(-c2c[nH]c3ncc(-c4cnn(CCOC)c4)cc23)nc(N)n1 [Compound A56, 4-Ethyl-6-{5-[1-(2-methoxyethyl)-1H-pyrazol-4-yl]-1H-pyrrolo[2,3-b]pyridin-3-yl}pyrimidin-2-ylamine]",10 to 1000 nM,–,–
"CCc1cc(-c2c[nH]c3ncc(-c4cn[nH]c4)cc23)nc(N)n1 [Compound A60, 4-Ethyl-6-[5-(1H-pyrazol-4-yl)-1H-pyrrolo[2,3-b]pyridin-3-yl]pyrimidin-2-ylamine]",–,–,IC50 (PDK1): 10 to 1000 nM
"CCc1cc(-c2c[nH]c3ncc(-c4cnn(CC(C)C)c4)cc23)nc(N)n1 [Compound A66, 4-Ethyl-6-[5-(1-isobulyl-1H-pyrazol-4-yl)-1H-pyrrolo[2,3-b]pyridin-3-yl]-pyrimidin-2-ylamine]",10 to 1000 nM,–,–
